Reference: patent US7772180B2, “Hepatitis C virus inhibitors” (Bristol-Myers Squibb Company, priority 2006, dated 2010)
Like-named read-outs stand apart in the source and are kept apart here.

Assays:
[1] = target: T1, HCV NS3/4A protease complex, BMS strain (UniProt P27958, species not given/STRAIN_BMS); assay: FRET peptide assay to monitor HCV NS3/4A proteolytic activity (BMS strain); type: biochemical, Hepatitis C virus (genotype 1a); details: read-out: HCV Protease (IC50); NS3/4A BMS strain; activity range class
T1 construct: other: NS3/4A BMS strain; activity range class; numeric values, unit not given; said of H77 and J4L6S; fused on or other part: A three-lysine solubilising tail at the C-terminus of NS4A; A His tag is implied by the pET21b vector and Ni-NTA purification; Both are printed for the H77 and J4L6S constructs and apply to BMS by inference
Description: HCV NS3 protease complexes, derived from the BMS strain, H77 strain or J4L6S strain, were generated, as described below. These purified recombinant proteins were generated for use in a homogeneous assay (see below) to provide an indication of how effective compounds of the present disclosure would be in inhibiting HCV NS3 proteolytic activity.
Serum from an HCV-infected patient was obtained from Dr. T. Wright, San Francisco Hospital. An engineered full-length cDNA (compliment deoxyribonucleic acid) template of the HCV genome (BMS strain) was constructed from DNA fragments obtained by reverse transcription-PCR (RT-PCR) of serum RNA (ribonucleic acid) and using primers selected on the basis of homology between other genotype 1a strains. From the determination of the entire genome sequence, a genotype 1a was assigned to the HCV isolate according to the classification of Simmonds et al. (See P Simmonds, K A Rose, S Graham, S W Chan, F McOmish, B C Dow, E A Follett, P L Yap and H Marsden, J. Clin. Microbiol., 31(6), 1493-1503 (1993)). […] The infectious clones, H77 (1a genotype) and J4L6S (1b genotype) were obtained from R. Purcell (NIH) and the sequences are published in Genbank (AAB67036, see Yanagi, M., Purcell, R. H., Emerson, S. U. and Bukh, J. Proc. Natl. Acad. Sci. U.S.A. 94(16), 8738-8743 (1997); AF054247, see Yanagi, M., St Claire, M., Shapiro, M., Emerson, S. U., Purcell, R. H. and Bukh, J. Virology 244 (1), 161-172. (1998)).
NS3/4A protease complex-containing fractions were pooled and loaded on a desalting column Superdex-S200 pre-equilibrated with buffer D (25 mM HEPES, pH 7.5, 20% glycerol, 300 mM NaCl, 0.2% Triton X-100, 10 mM βME). Sample was loaded at a flow rate of 1 mL/min. NS3/4A protease complex-containing fractions were pooled and concentrated to approximately 0.5 mg/ml. The purity of the NS3/4A protease complexes, derived from the BMS, H77 and J4L6S strains, were judged to be greater than 90% by SDS-PAGE and mass spectrometry analyses. The enzyme was stored at −80° C., thawed on ice and diluted prior to use in assay buffer.
The purpose of this in vitro assay was to measure the inhibition of HCV NS3 protease complexes, derived from the BMS strain, H77 strain or J4L6S strain, as described above, by compounds of the present disclosure. This assay provides an indication of how effective compounds of the present disclosure would be in inhibiting HCV NS3 proteolytic activity.
In order to monitor HCV NS3/4A protease activity, an NS3/4A peptide substrate was used. The substrate was RET S1 (Resonance Energy Transfer Depsipeptide Substrate; AnaSpec, Inc. cat #22991) (FRET peptide), described by Taliani et al. in Anal. Biochem. 240(2):60-67 (1996). The sequence of this peptide is loosely based on the NS4A/NS4B natural cleavage site for the HCV NS3 protease except there is an ester linkage rather than an amide bond at the cleavage site. The peptide also contains a fluorescence donor, EDANS, near one end of the peptide and an acceptor, DABCYL, near the other end. The fluorescence of the peptide is quenched by […] resonance energy transfer (RET) between the donor and the acceptor, but as the NS3 protease cleaves the peptide the products are released from RET quenching and the fluorescence of the donor becomes apparent.
The peptide substrate was incubated with one of the three recombinant NS3/4A protease complexes, in the absence or presence of a compound of the present disclosure. The inhibitory effects of a compound were determined by monitoring the formation of fluorescent reaction product in real time using a Cytofluor Series 4000.
Assay buffer: 50 mM HEPES, pH 7.5; 0.15 M NaCl; 0.1% Triton; 15% Glycerol; 10 mM βME. Substrate: 2 μM final concentration (from a 2 mM stock solution in DMSO stored at −20° C.). HCV NS3/4A protease type 1a (1b), 2-3 nM final concentration (from a 5 μM stock solution in 25 mM HEPES, pH 7.5, 20% glycerol, 300 mM NaCl, 0.2% Triton-X100, 10 mM βME). […]

[2] = tested on: HCV replicon (strain 1b) in HUH-7 cells; assay: HCV replicon FRET assay; type: cell-based, Hepatitis C virus; details: activity range class
Description: An HCV replicon whole cell system was established as described by Lohmann V, Korner F, Koch J, Herian U, Theilmann L, Bartenschlager R., Science 285(5424): 110-3 (1999). This system enabled us to evaluate the effects of our HCV Protease compounds on HCV RNA replication. Briefly, using the HCV strain 1b sequence described in the Lohmann paper (Assession number: AJ238799), an HCV cDNA was synthesized by Operon Technologies, Inc. (Alameda, Calif.), and the full-length replicon was then assembled in plasmid pGem9zf(+) (Promega, Madison, Wis.) using standard molecular biology techniques. The replicon consists of (i) the HCV 5′ UTR fused to the first 12 amino acids of the capsid protein, (ii) the neomycin phosphotransferase gene (neo), (iii) the IRES from encephalomyocarditis virus (EMCV), and (iv) HCV NS3 to NS5B genes and the HCV 3′ UTR. Plasmid DNAs were linearized with ScaI and RNA transcripts were synthesized in vitro using the T7 MegaScript transcription kit (Ambion, Austin, Tex.) according to manufacturer's directions. In vitro transcripts of the cDNA were transfected into the human hepatoma cell line, HUH-7. […] Resulting cell lines were characterized for positive and negative strand RNA production and protein production over time.
The HCV replicon FRET assay was developed to monitor the inhibitory effects of compounds described in the disclosure on HCV viral replication. HUH-7 cells, constitutively expressing the HCV replicon, were grown in Dulbecco's Modified Eagle Media (DMEM) (Gibco-BRL) containing 10% Fetal calf serum (FCS) (Sigma) and 1 mg/ml G418 (Gibco-BRL). Cells were seeded the night before (1.5×10^4 cells/well) in 96-well tissue-culture sterile plates. Compound and no compound controls were prepared in DMEM containing 4% FCS, 1:100 Penicillin/Streptomysin (Gibco-BRL), 1:100 L-glutamine and 5% DMSO in the dilution plate (0.5% DMSO final concentration in the assay). Compound/DMSO mixes were added to the cells and incubated for 4 days at 37° C. After 4 days, cells were first assessed for cytotoxicity using alamar Blue (Trek Diagnotstic Systems) for a CC50 reading. The toxicity of compound (CC50) was determined by adding 1/10th volume of alamarBlue to the media incubating the cells. After 4 hours, the fluorescence signal from each well was read, with an excitation wavelength at 530 nm and an emission wavelength of 580 nm, using the Cytofluor Series 4000 (Perspective Biosystems). Plates were then rinsed thoroughly with Phosphate-Buffered Saline (PBS) (3 times 150 μl).

[3] = read-out: HCV Pro Replicon (EC50), HCV replicon cell assay
[4] = Hepatitis C virus, Huh-7, read-out: HCV Pro Replicon (EC50), HCV replicon cell assay

T1 sequence (P27958 1027-1657, change not shown, one chain of several): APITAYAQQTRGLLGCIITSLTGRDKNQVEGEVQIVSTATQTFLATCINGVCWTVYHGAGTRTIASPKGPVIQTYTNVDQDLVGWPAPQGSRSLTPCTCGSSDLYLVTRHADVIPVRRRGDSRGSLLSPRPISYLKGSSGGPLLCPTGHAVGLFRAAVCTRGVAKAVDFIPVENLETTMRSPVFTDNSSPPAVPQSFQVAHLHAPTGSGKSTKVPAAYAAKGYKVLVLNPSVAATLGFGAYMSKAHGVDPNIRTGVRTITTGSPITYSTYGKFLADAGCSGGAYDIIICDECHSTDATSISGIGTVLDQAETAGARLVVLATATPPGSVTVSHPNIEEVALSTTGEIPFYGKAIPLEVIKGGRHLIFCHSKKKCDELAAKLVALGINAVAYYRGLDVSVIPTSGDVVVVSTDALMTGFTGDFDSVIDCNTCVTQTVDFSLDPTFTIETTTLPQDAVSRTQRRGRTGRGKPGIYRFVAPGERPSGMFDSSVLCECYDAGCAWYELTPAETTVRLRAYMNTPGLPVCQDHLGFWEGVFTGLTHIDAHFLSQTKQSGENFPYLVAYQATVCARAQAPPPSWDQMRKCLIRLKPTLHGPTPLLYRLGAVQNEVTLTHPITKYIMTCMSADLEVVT

Compound	IC50 [1] [nM]	EC50 [2, 3] [nM]	EC50 [2, 4] [nM]
C=C[C@@H]1C[C@]1(NC(=O)[C@@H]1C[C@@H](Oc2nc(OC)cc3cc(OC)ccc23)CN1C(=O)C(Nc1ccccc1)C(C)(C)C)C(=O)NS(=O)(=O)C1CC1 (single isomer, unassigned) [20 second isomer]	20 to 200	100 to 1000	
C=C[C@@H]1C[C@]1(NC(=O)[C@@H]1C[C@@H](Oc2ncc(OC)c3ccc(Cl)cc23)CN1C(=O)C(Nc1cc(C)cc(C)n1)C(C)(C)C)C(=O)NS(=O)(=O)C1CC1 (single isomer, unassigned) [22 first isomer]	0.6 to 20	3 to 100	
C=C[C@@H]1C[C@]1(NC(=O)[C@@H]1C[C@@H](Oc2ncc(OC)c3ccc(Cl)cc23)CN1C(=O)C(Nc1cc(C)cc(C)n1)C(C)(C)C)C(=O)NS(=O)(=O)C1CC1 (single isomer, unassigned) [22 second isomer]	0.6 to 20	100 to 1000	
C=C[C@@H]1C[C@]1(NC(=O)[C@@H]1C[C@@H](Oc2ncc(OC)c3ccc(Cl)cc23)CN1C(=O)C(Nc1cncnc1)C(C)C)C(=O)NS(=O)(=O)C1CC1 (single isomer, unassigned) [24 second isomer]	> 200		> 1000
C=C[C@@H]1C[C@]1(NC(=O)[C@@H]1C[C@@H](Oc2ncc(OC)c3ccc(Cl)cc23)CN1C(=O)C(Nc1ccc(C)nc1)C(C)(C)C)C(=O)NS(=O)(=O)C1CC1 (single isomer, unassigned) [26 first isomer]	0.6 to 20		3 to 100
C=C[C@@H]1C[C@]1(NC(=O)[C@@H]1C[C@@H](Oc2ncc(OC)c3ccc(Cl)cc23)CN1C(=O)C(Nc1cncc(C(F)(F)F)c1)C(C)(C)C)C(=O)NS(=O)(=O)C1CC1 (single isomer, unassigned) [27 second isomer]	20 to 200		3 to 100
C=C[C@@H]1C[C@]1(NC(=O)[C@@H]1C[C@@H](Oc2ncc(OC)c3ccc(Cl)cc23)CN1C(=O)C(Nc1cccc(C)n1)C(C)(C)C)C(=O)NS(=O)(=O)C1CC1 (single isomer, unassigned) [28 first isomer]	0.6 to 20	3 to 100	
C=C[C@@H]1C[C@]1(NC(=O)[C@@H]1C[C@@H](Oc2ncc(OC)c3ccc(Cl)cc23)CN1C(=O)C(Nc1cccc(C)n1)C(C)(C)C)C(=O)NS(=O)(=O)C1CC1 (single isomer, unassigned) [28 second isomer]	20 to 200	100 to 1000	
C=C[C@@H]1C[C@]1(NC(=O)[C@@H]1C[C@@H](Oc2nccc3cc(OC)ccc23)CN1C(=O)C(Nc1ccc(OC)nc1)C(C)(C)C)C(=O)NS(=O)(=O)C1CC1 (single isomer, unassigned) [407 first isomer]	0.6 to 20		100 to 1000
C=C[C@@H]1C[C@]1(NC(=O)[C@@H]1C[C@@H](Oc2nccc3cc(OC)ccc23)CN1C(=O)C(Nc1ccc(OC)nc1)C(C)(C)C)C(=O)NS(=O)(=O)C1CC1 (single isomer, unassigned) [407 second isomer]	0.6 to 20	100 to 1000	
C=C[C@@H]1C[C@]1(NC(=O)[C@@H]1C[C@@H](Oc2ncc(OC)c3ccc(Cl)cc23)CN1C(=O)C(Nc1ccc(OC)nc1)C(C)(C)C)C(=O)NS(=O)(=O)C1CC1 (single isomer, unassigned) [408 first isomer]	0.6 to 20	3 to 100	
C=C[C@@H]1C[C@]1(NC(=O)[C@@H]1C[C@@H](Oc2ncc(OC)c3ccc(Cl)cc23)CN1C(=O)C(Nc1ccc(OC)nc1)C(C)(C)C)C(=O)NS(=O)(=O)C1CC1 (single isomer, unassigned) [408 second isomer]	> 200	100 to 1000	
C=C[C@@H]1C[C@]1(NC(=O)[C@@H]1C[C@@H](Oc2nccc3cc(OC)ccc23)CN1C(=O)C(Nc1ccc(C(F)(F)F)cn1)C(C)C)C(=O)NS(=O)(=O)C1CC1 (single isomer, unassigned) [Compound 2]	20 to 200		100 to 1000
C=C[C@@H]1C[C@]1(NC(=O)[C@@H]1C[C@@H](Oc2nccc3cc(OC)ccc23)CN1C(=O)C(Nc1ccccn1)C(C)C)C(=O)NS(=O)(=O)C1CC1 (single isomer, unassigned) [Compound 7]	20 to 200		3 to 100
C=C[C@@H]1C[C@]1(NC(=O)[C@@H]1C[C@@H](Oc2nccc3cc(OC)ccc23)CN1C(=O)C(Nc1cc(OC)ccn1)C(C)C)C(=O)NS(=O)(=O)C1CC1 (single isomer, unassigned) [Compound 8]	20 to 200		3 to 100
C=C[C@@H]1C[C@]1(NC(=O)[C@@H]1C[C@@H](Oc2nccc3cc(OC)ccc23)CN1C(=O)C(Nc1cc(C(F)(F)F)ccn1)C(C)C)C(=O)NS(=O)(=O)C1CC1 (single isomer, unassigned) [Compound 9]	0.6 to 20		3 to 100
C=C[C@@H]1C[C@]1(NC(=O)[C@@H]1C[C@@H](Oc2nccc3cc(OC)ccc23)CN1C(=O)C(Nc1cc(C)ccn1)C(C)C)C(=O)NS(=O)(=O)C1CC1 (single isomer, unassigned) [Compound 10]	0.6 to 20		3 to 100
